Values of other authors in publication PMC2096531 (Purinergic Signalling, 2005).

Molecular target: human A2B receptors
Conditions: read-out: EC50 A2B, agonist

Q: With `CCNC(=O)[C@H]1O[C@@H](n2cnc3c(N)nc(C#CC(O)c4ccccc4)nc32)[C@H](O)[C@@H]1O` (stereo partly drawn) [(R,S)-PHPNECA, (R,S)-2-phenyhydroxypropynyl-N-ethylcarboxamidoadenosine] as the compound, how does the EC50 read?
A: Its EC50 is 1100 nM.
